# Assay results from patent US20250122190A1, “HALOGEN-SUBSTITUTED PYRIDAZINONE COMPOUND AND APPLICATION THEREOF” (MEDSHINE DISCOVERY INC., priority 2021, published 2025).
# Experiment: In vivo PK studies, intravenous injection
# Conditions: rat, plasma, 0.5 mg/kg, male SD rats, 0.5 mpk
# Protocol: Male SD rats were used as test animals. After intravenous injection, the blood drug concentration of the compounds was determined and the pharmacokinetic behavior was evaluated.
# Three healthy adult male SD rats were selected. The test compounds were mixed with an appropriate amount of a vehicle of the intravenous injection group and prepared into a 0.5 or 1 mg/mL clear solution, which was filtered with a […] microporous filter membrane for later use. After intravenous administration to the rats at 0.5 or 1 mg/kg, whole blood was collected at 0.083, 0.25, 0.5, 1, 2, 4, 8, 24 hours after administration and placed in EDTA-K2 anticoagulant tubes, and the mixture was vortexed thoroughly and centrifuged at 3200 g, 4° C. for 10 minutes to obtain the plasma. The LC-MS/MS method was used to determine the drug concentration, and the Phoenix WinNonlin 6.3 pharmacokinetic software was used to calculate the relevant pharmacokinetic parameters by the non-compartmental model linear logarithmic trapezoidal method. • Vehicle 1:10% DMSO/10% Kolliphor® HS 15/80% (20% sulfobutyl-β-cyclodextrin); • Vehicle 2:10% DMSO+20% polyoxyethylenated castor oil+70% water; • Vehicle 3:5% DMSO+10% Kolliphor® HS 15+85% physiological saline; • Vehicle 4:10% DMSO+60% polyethylene glycol 400+30% (10% aqueous hydroxypropyl-β-cyclodextrin solution).
AUC(0-t) [µM·h],clearance [mL/min/kg],half-life [min],SMILES
2.38,6.52,155,O=c1[nH]ncc(N2CCc3c(ncnc3Oc3ccc(F)cc3C(F)(F)F)C2)c1Br [Compound WX009]

# Same assay, conditions: rat, plasma, 0.5 mg/kg, male SD rats, 0.5 mpk, read-out: Vdss
row,Vd [L/kg],SMILES
1,1.37,O=c1[nH]ncc(N2CCc3c(ncnc3Oc3ccc(F)cc3C(F)(F)F)C2)c1Br [Compound WX009]

# Same assay, conditions: rat, plasma, 1 mg/kg, male SD rats, 1 mpk
AUC(0-t) [µM·h],clearance [mL/min/kg],half-life [min],SMILES
1.97,18.2,110,O=c1[nH]ncc(N2CCc3c(ncnc3Sc3ccc(F)cc3C(F)(F)F)C2)c1Cl [Compound WX002]
8.26,4.6,121,O=c1[nH]ncc(N2CCc3c(ncnc3Oc3ccc(F)cc3Br)C2)c1Cl [Compound WX004]
4.75,7.81,104,CC(F)(F)c1cc(F)ccc1Oc1ncnc2c1CCN(c1cn[nH]c(=O)c1Cl)C2 [Compound WX010]
4.05,8.29,87.6,COCc1nc2c(c(Oc3ccc(F)cc3C(F)(F)F)n1)CCN(c1cn[nH]c(=O)c1Cl)C2 [Compound WX011]
3.33,10.1,139,O=c1[nH]ncc(N2CCc3c(nc(CO)nc3Sc3ccc(F)cc3C(F)(F)F)C2)c1Cl [Compound WX012]
9.13,3.94,159,Nc1nc2c(c(Sc3ccc(F)cc3C(F)(F)F)n1)CCN(c1cn[nH]c(=O)c1Cl)C2 [Compound WX013]

# Same assay, conditions: rat, plasma, 1 mg/kg, male SD rats, 1 mpk, read-out: Vdss
row,Vd [L/kg],SMILES
1,2.28,O=c1[nH]ncc(N2CCc3c(ncnc3Sc3ccc(F)cc3C(F)(F)F)C2)c1Cl [Compound WX002]
2,0.77,O=c1[nH]ncc(N2CCc3c(ncnc3Oc3ccc(F)cc3Br)C2)c1Cl [Compound WX004]
3,1.13,CC(F)(F)c1cc(F)ccc1Oc1ncnc2c1CCN(c1cn[nH]c(=O)c1Cl)C2 [Compound WX010]
4,1.06,COCc1nc2c(c(Oc3ccc(F)cc3C(F)(F)F)n1)CCN(c1cn[nH]c(=O)c1Cl)C2 [Compound WX011]
5,1.62,O=c1[nH]ncc(N2CCc3c(nc(CO)nc3Sc3ccc(F)cc3C(F)(F)F)C2)c1Cl [Compound WX012]
6,0.88,Nc1nc2c(c(Sc3ccc(F)cc3C(F)(F)F)n1)CCN(c1cn[nH]c(=O)c1Cl)C2 [Compound WX013]
